Tests used:
H358 cells = assay: Cell-based rescreen of top virtual-screen hits, IC50 determination; conditions: Homo sapiens, NCI-H358, 0.1 μM to 10 μM, 72 hours
Experimental: Cell viability assay: Cell Counting Kit-8 (CCK-8) was purchased from Dojindo Molecular Technologies (Rockville, Md., USA). Cells were seeded on a 96-well plate and allowed to adhere in complete medium for 24 hours. Test compounds were added to 100 μl of medium at the indicated concentrations for 72 hours. Ten μl of the CCK-8 reagent were added to each well and absorbance at 450 nm was measured using a Tecan Spark 10M multimode microplate reader.
A virtual screen of a library of 1440 FDA-approved drugs using binding pockets in the N-terminal domain of PXN (FIG. 9H) identified several putative hits. The top 40 hits were then rescreened employing a cell-based assay to determine their efficacy using H358 cells.

H1993 cells = assay: IncuCyte cell proliferation and caspase-3/7 apoptosis assay; format: cell-based, human
Experimental: (§1) Cell proliferation and apoptosis assay. Cell proliferation assays were performed using cell lines stably transfected with NucLight Red Lentivirus (Essen Bioscience) to accurately visualize and count the nucleus of a single cell. Cells were seeded on a 96-well plate and allowed to adhere for 24 hours. Test compounds were added at indicated concentrations. Caspase-3/7 Green Apoptosis Reagent (Essen Bioscience) was also added as a green fluorescent indicator of caspase-3/7-mediated apoptotic activity. To monitor cell proliferation and apoptosis over time, the plate was placed in the IncuCyte S3 Live-Cell Analysis System (Essen BioScience) and images were acquired every 2 hours. Data analysis was generated by the IncuCyte software using a red fluorescence mask to accurately count each cell nucleus and a green fluorescence mask to measure apoptosis over time.
(§2) To determine whether the inhibition in cell proliferation associated with ITGB4 knockdown was due to enhanced apoptosis or reduced cell division (cytostatic), the Essen Bioscience Caspase-3/7 Green apoptosis assay in live cells was conducted. The NucView™[…], a DNA intercalating dye was used to enable quantification of apoptosis over time. The dye is impermeable and non-toxic to cells but once the cell membrane is permeabilized by caspase-3/7, the dye enters the cell and gets activated due to change in pH leading to the generation of green fluorescence that is then detected in real time and quantified using the IncuCyte System (FIG. 4B).
To address this, H1993 and H2009 cells were treated with cisplatin for 3 days and the changes were analyzed by immunoblotting. […] Next, H1993 and H2009 cells were transiently transfected with ITGB4 siRNA and 24 hours post-transfection they were treated with 10 μM cisplatin and cell proliferation and caspase activity were determined. […] However, in response to cisplatin in ITGB4 knockdown cells, the fold change dipped to <1, alluding to a cytotoxic effect (FIG. 4C). […] However, cell death was not due to caspase activation but appeared to be due to cell bursting which is seen in anoikis (FIGS. 3K and 3L). […]

H2009 cells = assay: as above; format: cell-based, human
Experimental: as §1, §2
To address this, H1993 and H2009 cells were treated with cisplatin for 3 days and the changes were analyzed by immunoblotting. […] Next, H1993 and H2009 cells were transiently transfected with ITGB4 siRNA and 24 hours post-transfection they were treated with 10 μM cisplatin and cell proliferation and caspase activity were determined. […] However, in response to cisplatin in ITGB4 knockdown cells, the fold change dipped to <1, alluding to a cytotoxic effect (FIG. 4C). […] However, cell death was not due to caspase activation but appeared to be due to cell bursting which is seen in anoikis (FIGS. 3K and 3L).

Molecule	IC50 (H358 cells) [nM]	also measured
COc1cc2ncnc(Nc3ccc(F)c(Cl)c3)c2cc1NC(=O)/C=C/CN1CCCCC1 [Dacomitinib]	60	–
GCUUCGCUGUCGGAUUUCATT (SEQ ID NO: 6) (chemistry not given here) [PXN siRNA, siRNA against PXN, Life Technologies Cat 4392421]	–	inhibition of cell proliferation (H1993 cells; siRNA knockdown): 15%
CN(C)C/C=C/C(=O)Nc1cc2c(Nc3ccc(F)c(Cl)c3)ncnc2cc1O[C@H]1CCOC1 [Afatinib]	9	–
CCS(=O)(=O)N1CCN(c2ccc(Nc3ncc(C(N)=O)c(NC4CC4)n3)cc2)CC1 [Cerdulatinib]	1540	–
Cc1cc(Nc2cc(N3CCN(C)CC3)nc(Sc3ccc(NC(=O)C4CC4)cc3)n2)[nH]n1 [Tozasertib]	0.9	–
C=CC(=O)N1CCC(Oc2cc3c(Nc4ccc(Cl)c(Cl)c4F)ncnc3cc2OC)CC1 [Poziotinib]	60	–
C1=C/COCc2cc(ccc2OCCN2CCCC2)Nc2nccc(n2)-c2cccc(c2)COC/1 [Pacritinib]	171	–
C=CC(=O)Nc1cc(Nc2nccc(-c3cn(C)c4ccccc34)n2)c(OC)cc1N(C)CCN(C)C [Osimertinib]	358	–
ACAACACUCAGAAUCUAAAUUGGAC (SEQ ID NO: 13) (listed as RNA, chemistry not given here) [VDAC1 siRNA, siRNA against VDAC1]	–	increase in apoptosis (H2009 cells; VDAC1 knockdown, 120 hours): 2 fold; decrease in cell proliferation (H2009 cells; VDAC1 knockdown, by 72 hours): 50%
Cc1nc(Nc2ncc(C(=O)Nc3c(C)cccc3Cl)s2)cc(N2CCN(CCO)CC2)n1 [Dasatinib]	1	–
GGAGCACAAAGCCAACUAACGARCA (SEQ ID NO: 11) (listed as RNA, chemistry not given here) [USP1 siRNA, siRNA against USP1, construct B, OriGene SR305052B]	–	inhibition of cell proliferation (H2009 cells; USP1 knockdown, by 72 hours of seeding): > 2 fold
Cc1cnc(-c2ccccc2C(C)C)nc1NCc1ccc(-n2ccnn2)cc1 [ML323]	–	cell proliferation rates (H2009 cells; 5 μM and 10 μM, 3 days): no significant change; cell proliferation rates (H1993 cells; 5 μM and 10 μM, 3 days): no significant change

Source: patent US20210283211A1, “COMPOSITIONS AND METHODS OF ALLEVIATING RESISTANCE TO CHEMOTHERAPY” (CITY OF HOPE, priority 2019, published 2021)
